Measured values from PubChem BioAssay AID2060344 (Molecular Pharmacology Branch, DTP, NCI, 2025).
Values joined by “and” are separate entries in the source; they are usually repeats but may differ in a detail not shown here. Equal entries are not always repeated.

Tested on: SK-MEL-2 multi-cell spheroids, viability
Assay: Anticancer human tumor SK-MEL-2 cell line growth inhibition [TAK];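 further: spheroids exposed to drugs for seven days before readout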;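 on viability, T/C: percent of DMSO vehicle control luminescence so 100% = untreated viability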
Conditions: for viability, T/C: stronger effect = lower value; active means viability on the fitted dose curve at most 10% of control; inactive means the rest
Description: Combinatorial screen of targeted agents with TAK-243 and ipatasertib in multi-cell type tumor spheroids
A high-throughput screen of multi-cell type tumor spheroids was designed to identify active combinations of targeted small molecules and TAK-243 or ipatasertib. Complex spheroids include a stromal component modeled by human endothelial cells (HUVEC) and fibroblasts modeled by human mesenchymal stem cells (MSCs). The concentration ranges selected for each drug and investigational agent were based upon clinically achievable concentrations if the clinical Cmax of the agent was known.
Compounds. The drugs and investigational agents: TAK-243 (785004), ipatasertib (767898), everolimus (733504), selumetinib (741078), bortezomib (756655), trametinib (758246), ixazomib (758254), vemurafenib (761431), dabrafenib (764134), sapanisertib (764658), alpelisib (765974), and copanlisib (816437), were obtained from the National Cancer Institute (NCI) Developmental Therapeutics Program Chemical Repository. The FDA-approved anticancer drug set is available from the NCI Developmental Therapeutics Program. […] The stock solutions were prepared in dimethyl sulfoxide (DMSO, Sigma-Aldrich, St. Louis, MO, cat. D2650) at 800-fold the tested concentration and stored at -70 degrees C prior to their use. All drugs and investigational agents were tested over a range starting from a high concentration at or near the clinical Cmax and decreasing in half-log increments. If the clinical Cmax for an agent had not been determined, the highest concentration tested was 10 microM.
NCI60 Cell Culture. NCI60 cell lines were obtained from the NCI Developmental Therapeutics Program Tumor Repository. For each lot of cells, the Repository performed Applied Biosystems AmpFLSTR Identifiler testing with PCR amplification to confirm consistency with the published Identifier STR profile for each cell line. Cells were kept in continuous culture for no more than 20 passages. The optimal seeding densities for each of the cell lines at each time point assessed were determined prior to performing the concentration response studies. Briefly, the NCI60 human tumor lines were grown as monolayers in RPMI 1640 medium supplemented with 10% FBS and 2 mmol/L L-glutamine.
An additional 2 lines were from the NCI60 cell line panel including melanomas, MALME-3M and SK-MEL-2. Pooled donor human umbilical vein endothelial cells (HUVEC, Lonza, cat. CC-2519) and human mesenchymal stem cells (hMSC, Lonza, cat. PT-2501) were purchased from Lonza (Walkersville, MD).
PDMR cell lines were grown in complete medium (DC medium): Dulbecco's modified Eagle's medium (DMEM)/F12 supplemented with 5% fetal bovine serum (FBS), 2 mM L-glutamine, 100 U/mL penicillin and 100 µg/ml streptomycin, 0.4 µg/ml hydrocortisone, 10 ng/ml epidermal growth factor (EGF) recombinant human protein, 24 µg/mL adenine, and 0.1 mg/mL primocin. During culture from frozen stock vials, PDMR cells were cultured in the same medium containing 10 µM Y-27632 (see Table 3). The PDCs were cultured in complete DMEM/F12 media without 10 microM Y-27632 dihydrochloride for at least two passages prior to the screen. The pooled donor HUVEC and hMSC were cultured in endothelial cell growth medium 2 (PromoCell, Heidelberg, Germany, cat. C-22011) and mesenchymal stem cell growth medium 2 (PromoCell, cat. C-28009), respectively. For all experiments, HUVEC and hMSC were used at passages </=5.
For the pre-screen, cell seeding densities were determined from a titration spanning the range from 5,000 to 313 cells per well. The mct-spheroids including 60% malignant cells, 25% HUVEC and 15% MSC dispensed as a mixture into U-bottom Ultra-Low Attachment 384-well plates (Corning, NY)
High-throughput Drug Combination Screening.
Prior to their inoculation into 384-well plates, malignant cells, HUVEC, and hMSC were removed from T flasks using TrypLE express (Thermo Fisher Scientific, cat. 12605036) and harvested by centrifugation for 5 min at 233 x g. […]

[1] = curve of first compound, second compound 0.3 µM
[2] = curve of first compound, second compound 0.949 µM
[3] = curve of first compound, second compound 3 µM
[4] = curve of first compound, second compound 9.49 µM
[5] = curve of first compound, second compound 30 µM

Cn1cnc2c(F)c(Nc3ccc(Br)cc3Cl)c(C(=O)NOCCO)cc21
19.7% and 9.79%: viability, T/C (compound 0.0949 µM)
< 9.49 nM: IC50 (curve of compound)
21.9% and 7.35%: viability, T/C (compound 0.3 µM)
14.6% and 5.25%: viability, T/C (compound 0.949 µM)
inactive: viability, T/C (compound 0.00949 µM) 46.8% and 40.8% | viability, T/C (compound 0.03 µM) 34.6% and 17.4%
14.1% and 2.56%: viability, T/C (compound 3 µM)

CC(C)(C)c1nc(-c2cccc(NS(=O)(=O)c3c(F)cccc3F)c2F)c(-c2ccnc(N)n2)s1
inactive: viability, T/C (compound 0.0316 µM) 137% and 126% | viability, T/C (compound 0.1 µM) 126% and 122% | viability, T/C (compound 0.316 µM) 82.3% and 76.3% | viability, T/C (compound 1 µM) 28.8% and 32% | viability, T/C (compound 3.16 µM) 13.3% and 16.8% | viability, T/C (compound 10 µM) 18.9% and 22.2%
631 nM and 615 nM: IC50 (curve of compound)

COc1c(OCCCN2CCOCC2)ccc2c3n(c(=NC(=O)c4cnc(N)nc4)nc12)CCN3
63.9 nM and 61.4 nM: IC50 (curve of compound)
inactive: viability, T/C (compound 0.00316 µM) 93.1% and 92.3% | viability, T/C (compound 0.01 µM) 71.8% and 74% | viability, T/C (compound 0.0316 µM) 60.8% and 56.7% | viability, T/C (compound 0.1 µM) 44.8% and 46.6% | viability, T/C (compound 0.316 µM) 31.1% and 30.9% | viability, T/C (compound 1 µM) 20.5% and 23.6%

CC(=O)Nc1cccc(-n2c(=O)n(C3CC3)c(=O)c3c(Nc4ccc(I)cc4F)n(C)c(=O)c(C)c32)c1 + CC(C)NCC(C(=O)N1CCN(c2ncnc3c2C(C)CC3O)CC1)c1ccc(Cl)cc1
< 0.0949 nM: IC50 [3] | IC50 [4] | IC50 [5]
inactive: viability, T/C (second compound 0.3 µM, first compound 94.9 pM) 78.9% | viability, T/C (second compound 0.3 µM, first compound 0.0003 µM) 35.2% | viability, T/C (second compound 0.3 µM, first compound 0.000949 µM) 10.4% | viability, T/C (second compound 0.949 µM, first compound 94.9 pM) 63.2% | viability, T/C (second compound 0.949 µM, first compound 0.0003 µM) 29.8% | viability, T/C (second compound 0.949 µM, first compound 0.000949 µM) 10.2% | viability, T/C (second compound 3 µM, first compound 94.9 pM) 47% | viability, T/C (second compound 3 µM, first compound 0.0003 µM) 21% | viability, T/C (second compound 9.49 µM, first compound 94.9 pM) 39% | viability, T/C (second compound 9.49 µM, first compound 0.0003 µM) 19.2% | viability, T/C (second compound 30 µM, first compound 94.9 pM) 39.5% | viability, T/C (second compound 30 µM, first compound 0.0003 µM) 17.5%
active: viability, T/C (second compound 0.3 µM, first compound 0.003 µM) 5.62% | viability, T/C (second compound 0.3 µM, first compound 0.00949 µM) 2.19% | viability, T/C (second compound 0.3 µM, first compound 0.03 µM) 1.65% | viability, T/C (second compound 0.949 µM, first compound 0.003 µM) 3.49% | viability, T/C (second compound 0.949 µM, first compound 0.00949 µM) 1.83% | viability, T/C (second compound 0.949 µM, first compound 0.03 µM) 1.53% | viability, T/C (second compound 3 µM, first compound 0.000949 µM) 3.96% | viability, T/C (second compound 3 µM, first compound 0.003 µM) 2.14% | viability, T/C (second compound 3 µM, first compound 0.00949 µM) 1.28% | viability, T/C (second compound 3 µM, first compound 0.03 µM) 0.92% | viability, T/C (second compound 9.49 µM, first compound 0.000949 µM) 5.57% | viability, T/C (second compound 9.49 µM, first compound 0.003 µM) 1.46% | viability, T/C (second compound 9.49 µM, first compound 0.00949 µM) 1.58% | viability, T/C (second compound 9.49 µM, first compound 0.03 µM) 0.65% | viability, T/C (second compound 30 µM, first compound 0.000949 µM) 3.27% | viability, T/C (second compound 30 µM, first compound 0.003 µM) 1.19% | viability, T/C (second compound 30 µM, first compound 0.00949 µM) 0.56% | viability, T/C (second compound 30 µM, first compound 0.03 µM) 1.06%
0.15 nM: IC50 [2]
0.203 nM: IC50 [1]

CC(C)CC(NC(=O)C(Cc1ccccc1)NC(=O)c1cnccn1)B(O)O (stereo unspecified) + CC(C)NCC(C(=O)N1CCN(c2ncnc3c2C(C)CC3O)CC1)c1ccc(Cl)cc1
4.24 nM: IC50 [4]
inactive: viability, T/C (second compound 0.3 µM, first compound 31.6 pM) 116% | viability, T/C (second compound 0.3 µM, first compound 0.0001 µM) 110% | viability, T/C (second compound 0.3 µM, first compound 0.000316 µM) 104% | viability, T/C (second compound 0.3 µM, first compound 0.001 µM) 117% | viability, T/C (second compound 0.3 µM, first compound 0.00316 µM) 122% | viability, T/C (second compound 0.3 µM, first compound 0.01 µM) 103% | viability, T/C (second compound 0.949 µM, first compound 31.6 pM) 120% | viability, T/C (second compound 0.949 µM, first compound 0.0001 µM) 116% | viability, T/C (second compound 0.949 µM, first compound 0.000316 µM) 111% | viability, T/C (second compound 0.949 µM, first compound 0.001 µM) 119% | viability, T/C (second compound 0.949 µM, first compound 0.00316 µM) 111% | viability, T/C (second compound 0.949 µM, first compound 0.01 µM) 118% | viability, T/C (second compound 3 µM, first compound 31.6 pM) 119% | viability, T/C (second compound 3 µM, first compound 0.0001 µM) 117% | viability, T/C (second compound 3 µM, first compound 0.000316 µM) 98.7% | viability, T/C (second compound 3 µM, first compound 0.001 µM) 106% | viability, T/C (second compound 3 µM, first compound 0.00316 µM) 114% | viability, T/C (second compound 3 µM, first compound 0.01 µM) 114% | viability, T/C (second compound 9.49 µM, first compound 31.6 pM) 118% | viability, T/C (second compound 9.49 µM, first compound 0.0001 µM) 119% | viability, T/C (second compound 9.49 µM, first compound 0.000316 µM) 113% | viability, T/C (second compound 9.49 µM, first compound 0.001 µM) 109% | viability, T/C (second compound 9.49 µM, first compound 0.00316 µM) 62.5% | viability, T/C (second compound 9.49 µM, first compound 0.01 µM) 13.1% | viability, T/C (second compound 30 µM, first compound 31.6 pM) 115% | viability, T/C (second compound 30 µM, first compound 0.0001 µM) 123% | viability, T/C (second compound 30 µM, first compound 0.000316 µM) 111% | viability, T/C (second compound 30 µM, first compound 0.001 µM) 114% | viability, T/C (second compound 30 µM, first compound 0.00316 µM) 119% | viability, T/C (second compound 30 µM, first compound 0.01 µM) 31.2%
> 10 nM: IC50 [1] | IC50 [2] | IC50 [3]
7.76 nM: IC50 [5]
